In US20260209247A1, “Substituted Tricyclic Compounds” (Lupin Limited, priority 2019, published 2026):

Assays:
[1] = target: T1, protein-protein interaction between hSOS1 and hKRASG12C (Homo sapiens, UniProt Q07889); assay: KRAS-SOS1 interaction assay (HTRF); assay type: binding; conditions: GST-hSOS1 564-1049aa, HIS-hKRASG12C, read-out: KRAS-SOS1 Interaction inhibition IC50
T1 construct: GST-hSOS1, 564-1049aa expressed and purified in-house
T1 sequence (Q07889 564-1049): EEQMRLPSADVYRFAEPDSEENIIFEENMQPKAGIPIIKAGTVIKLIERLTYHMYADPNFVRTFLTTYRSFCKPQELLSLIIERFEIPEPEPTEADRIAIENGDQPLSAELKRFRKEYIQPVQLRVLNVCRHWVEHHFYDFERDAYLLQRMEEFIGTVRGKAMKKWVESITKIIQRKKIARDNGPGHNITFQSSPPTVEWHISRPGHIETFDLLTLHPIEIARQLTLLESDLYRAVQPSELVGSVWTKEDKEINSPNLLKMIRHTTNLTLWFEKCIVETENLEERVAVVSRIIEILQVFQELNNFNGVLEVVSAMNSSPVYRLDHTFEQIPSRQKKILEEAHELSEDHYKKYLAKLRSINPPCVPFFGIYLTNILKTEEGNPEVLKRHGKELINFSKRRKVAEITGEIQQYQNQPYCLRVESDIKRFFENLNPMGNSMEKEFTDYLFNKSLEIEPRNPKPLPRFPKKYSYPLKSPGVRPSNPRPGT
Procedure: Interaction assay was conducted to evaluate the ability of the compounds to disrupt the protein-protein interactions between hSOS1 and hKRASG12C. Inhibitory effect of compounds on GST-hSOS1, 564-1049aa expressed and purified in-house and HIS-hKRASG12C (R06-32DH, SignalChem) interaction was assessed using HTRF detection technology in biochemical assay. Compounds were pre-incubated with 10-50 nM working solution of hSOS1 per well of a 384 well plate (Perkin Elmer, Cat #6007290) for 10 min at 20° C. in the assay buffer containing 5 mM HEPES, pH 7.4, 150 mM NaCl, 10 mM EDTA, 1 mM DTT, 0.05% BSA fraction V and 0.0025% Igepal. Reaction was initiated by adding 100-300 nM working solution of hKRASG12C in assay buffer. Total assay volume was 15 μL. Reaction was continued for 30-60 min at 20° C. Then detection solution containing MAb Anti-GST-d2 (#61GSTDLA, Cisbio BioAssays) and MAb Anti-HIS-Tb (#61HISTLA, Cisbio BioAssays), all prepared in HTRF detection buffer (#61DB10RDF, Cisbio BioAssays) was added and further incubated for 30-60 min at 20° C. HTRF signal was recorded in PHERAStar microplate reader. Ratio of signal obtained at 665 nm and 620 nm was used to compute the percent inhibition of compound utilizing the following formula: […]

[2] = target: T2, nucleotide exchange on hKRASG12C mediated by hSOS1 (Homo sapiens, UniProt Q07889); assay: Guanine nucleotide exchange assay (GNEA, HTRF); assay type: biochemical; conditions: HIS-hSOS1 564-1049aa mediated GTP loading onto GST-hKRASG12C 1-169aa, read-out: Guanine nucleotide exchange inhibition IC50
T2 construct: HIS-hSOS1, 564-1049aa mediated GTP loading onto GST-hKRASG12C; His (N); made in house
T2 sequence (Q07889 564-1049): T1 sequence (Q07889 564-1049)
Procedure: Example-154: Guanine nucleotide exchange assay (GNEA) GNEA assay was conducted to evaluate the effects of compounds on the nucleotide exchange on hKRASG12C mediated by hSOS1. Inhibitory effect of compounds on HIS-hSOS1, 564-1049aa mediated GTP loading onto GST-hKRASG12C, 1-169aa both expressed and purified in-house was assessed using HTRF detection technology in biochemical assay. Compounds were pre-incubated with hSOS1 working solution containing 10-50 nM hSOS1 and 200 nM EDA-GTP-DY-647P1 (Custom manufactured, Jena Biosciences) per well of a 384 well plate (Perkin Elmer, Cat #6007290) for 10 min at 20° C. in the assay buffer containing 10 mM HEPES, pH 7.4, 150 mM NaCl, 5 mM MgCl2, 1 mM DTT, 0.05% BSA fraction V and 0.0025% Igepal. Reaction was initiated by adding working solution of hKRASG12C containing 25-125 nM hKRASG12C and MAb Anti-GST-Tb (#61GSTTLA, Cisbio BioAssays) in assay buffer. Total assay volume was 15 μL. Reaction was continued for 30-60 min at 20° C. HTRF signal was recorded in PHERAStar microplate reader. Ratio of signal obtained at 665 nm and 620 nm was used to compute the percent inhibition of compound as follows.

[3] = test system: pERK after EGF stimulation in DLD1 cells; assay: ERK phosphorylation assay (alphascreen pERK); assay type: cell-based; conditions: Homo sapiens, DLD-1, 2 h compound, 200 ng/ml hEGF for 5 minutes, read-out: ERK phosphorylation inhibition IC50
Procedure: Compounds were tested for their ability to inhibit pERK after EGF stimulation in DLD1 cells. Cells were seeded at 0.2 million cells per well in 96 well cell binding tissue culture plate in 100 μL complete media and were allowed to settle overnight (16 to 20 h). On the following day, cells were treated with various concentrations of test compounds for 2 h followed by stimulation with 200 ng/ml hEGF (diluted in PBS) for 5 minutes. Cells were then washed once with PBS and lysed in freshly prepared lysis buffer (provided with alphascreen surefire ERK1/2 p-T202/Y204 assay kit, cat no: TGRESB10K, Perkin Elmer). Lysis was carried out in plate shaker for 10-15 mins. Lysate was transferred to […] white opti-plate (Perkin Elmer) and alphascreen for pERK was carried out as per manufacturer's instructions. Plate was read after 2 h incubation in plate shaker at […] 300 RPM, 25-28° C. The difference between the unstimulated and stimulated Vehicle control is considered as 100% ERK phosphorylation, and % inhibition of compounds is calculated accordingly.

Structure (SMILES) | IC50 [1] [µM] | IC50 [2] [µM] | IC50 [3] [µM]
COC1(C)C(=O)N(C)c2cc3nc(C)nc(N[C@H](C)c4cccc(C(F)(F)C(C)(C)O)c4F)c3cc21 (mixture of isomers) [Compound 96, (R&S)-4-(((R)-1-(3-(1,1-difluoro-2-hydroxy-2-methylpropyl)-2-fluorophenyl)ethyl)amino)-6-methoxy-2,6,8-trimethyl-6,8-dihydro-7H-pyrrolo[3,2-g]quinazolin-7-one] | 0.001 to 0.01 | 0.001 to 0.03 | 0.001 to 0.2
Cc1nc(N[C@H](C)c2cccc(C(F)(F)[C@](C)(O)CO)c2F)c2cc3c(cc2n1)OC(C)(C)C(=O)N3C (racemic) [Compound 23b, 4-(((R/S)-1-(3-((R/S)-1,1-difluoro-2,3-dihydroxy-2-methylpropyl)-2-fluorophenyl)ethyl)amino)-2,6,8,8-tetramethyl-6H-[1,4]oxazino[3,2-g]quinazolin-7(8H)-one] | 0.001 to 0.01 | 0.001 to 0.03 | 0.001 to 0.2
Cc1nc(N[C@H](C)c2cccc(C(F)(F)C(C)(C)O)c2F)c2cc3c(cc2n1)N(C)[C@@H](C)C(=O)N3C (racemic) [Compound 27a, (S/R)-4-(((R)-1-(3-(1,1-difluoro-2-hydroxy-2-methylpropyl)-2-fluorophenyl)ethyl)amino)-2,6,8,9-tetramethyl-8,9-dihydropyrazino[2,3-g]quinazolin-7(6H)-one] | 0.001 to 0.01 | 0.001 to 0.03 | 0.001 to 0.2
Cc1nc(N[C@H](C)c2cccc(C(F)(F)CO)c2F)c2cc3c(cc2n1)O[C@@H](C)CN3C (racemic) [Compound 36a, 2,2-difluoro-2-(2-fluoro-3-((R)-1-(((S/R)-2,6,8-trimethyl-7,8-dihydro-6H-[1,4]oxazino[3,2-g]quinazolin-4-yl)amino)ethyl)phenyl)ethan-1-ol] | 0.001 to 0.01 | 0.001 to 0.03 | 0.001 to 0.2
COC[C@](C)(O)C(F)(F)c1cccc([C@@H](C)Nc2nc(C)nc3cc4c(cc23)N(C)C(=O)C(C)(C)O4)c1F (racemic) [Compound 53a, 4—(((R)-1-(3-((S/R)-1,1-difluoro-2-hydroxy-3-methoxy-2-methylpropyl)-2-fluorophenyl)ethyl)amino)-2,6,8,8-tetramethyl-6H-[1,4]oxazino[3,2-g]quinazolin-7(8H)-one] | 0.001 to 0.01 | 0.001 to 0.03 | 0.001 to 0.2
Cc1nc(N[C@H](C)c2cccc(C(F)(F)C(C)(C)O)c2F)c2cc3c(cc2n1)N(C)C(=O)C3C (mixture of isomers) [Compound 95, (R&S)-4-(((R)-1-(3-(1,1-difluoro-2-hydroxy-2-methylpropyl)-2-fluorophenyl)ethyl)amino)-2,6,8-trimethyl-6,8-dihydro-7H-pyrrolo[3,2-g]quinazolin-7-one] | 0.011 to 0.025 | 0.031 to 0.13 | 0.001 to 0.2
Cc1nc(N[C@H](C)c2cc(N)cc(C(F)(F)F)c2)c2cc3c(cc2n1)OCCN3C [Compound 10, (R)—N-(1-(3-amino-5-(trifluoromethyl)phenyl)ethyl)-2,6-dimethyl-7,8-dihydro-6H-[1,4]oxazino[3,2-g]quinazolin-4-amine] | 0.001 to 0.01 | 0.031 to 0.13 | 
Cc1nc(N[C@H](C)c2cccc(C(F)(F)CO)c2F)c2cc3c(cc2n1)C(C)(C)C(=O)N3C [Compound 72, (R)-4-((1-(3-(1,1-difluoro-2-hydroxyethyl)-2-fluorophenyl)ethyl)amino)-2,6,8,8-tetramethyl-6,8-dihydro-7H-pyrrolo[2,3-g]quinazolin-7-one] | 0.001 to 0.01 | 0.001 to 0.03 | 
Cc1nc(N[C@H](C)c2cccc(C(F)(F)C(C)(C)O)c2F)c2cc3c(cc2n1)C(C)(C)C(=O)N3C(C)C [Compound 78, (R)-4-((1-(3-(1,1-difluoro-2-hydroxy-2-methylpropyl)-2-fluorophenyl)ethyl)amino)-6-isopropyl-2,8,8-trimethyl-6H-pyrrolo[2,3-g]quinazolin-7(8H)-one] |  |  | 0.001 to 0.2
Cc1nc(N[C@H](C)c2cccc(C(F)(F)C(C)(C)O)c2F)c2cc3c(cc2n1)C1(CC1)C(=O)N3C [Compound 79, (R)-4′-((1-(3-(1,1-difluoro-2-hydroxy-2-methylpropyl)-2-fluorophenyl)ethyl)amino)-2′,6′-dimethylspiro[cyclopropane-1,8′-pyrrolo[2,3-g]quinazolin]-7′(6′H)-one] |  |  | 0.001 to 0.2
Cc1nc(N[C@H](C)c2cccc(C(F)(F)C(C)(C)O)c2F)c2cc3c(cc2n1)N(C)C(C)(C)N3C [Compound 108, (R)-1,1-difluoro-1-(2-fluoro-3-(1-((1,2,2,3,6-pentamethyl-2,3-dihydro-1H-imidazo[4,5-g]quinazolin-8-yl)amino)ethyl)phenyl)-2-methylpropan-2-ol] |  |  | 0.201 to 0.5
Cc1nc(N[C@H](C)c2cccc(C(F)(F)C(C)(C)O)c2F)c2cc3c(cc2n1)oc(=O)n3C [Compound 111, (R)-8-((1-(3-(1,1-difluoro-2-hydroxy-2-methylpropyl)-2-fluorophenyl)ethyl)amino)-1,6-dimethyloxazolo[4,5-g]quinazolin-2(1H)-one] |  |  | 0.201 to 0.5
Cc1nc(N[C@H](C)c2cccc(C(F)(F)C(C)(C)O)c2F)c2cc3c(cc2n1)CC(=O)N3C [Compound 113, (R)-4-((1-(3-(1,1-difluoro-2-hydroxy-2-methylpropyl)-2-fluorophenyl)ethyl)amino)-2,6-dimethyl-6,8-dihydro-7H-pyrrolo[2,3-g]quinazolin-7-one] | 0.001 to 0.01 | 0.031 to 0.13 | 
Cc1nc(N[C@H](C)c2cccc(C(F)(F)C(C)(C)O)c2F)c2cc3c(cc2n1)C(=O)N(C)C3(C)C [Compound 114, (R)-4-((1-(3-(1,1-difluoro-2-hydroxy-2-methylpropyl)-2-fluorophenyl)ethyl)amino)-2,6,6,7-tetramethyl-6,7-dihydro-8H-pyrrolo[3,4-g]quinazolin-8-one] |  |  | 0.001 to 0.2
Cc1nc(N[C@H](C)c2cccc(C(F)(F)C(C)(C)O)c2F)c2cc3c(cc2n1)C(F)(F)C(=O)N3C [Compound 117, (R)-4-((1-(3-(1,1-difluoro-2-hydroxy-2-methylpropyl)-2-fluorophenyl)ethyl)amino)-8,8-difluoro-2,6-dimethyl-6,8-dihydro-7H-pyrrolo[2,3-g]quinazolin-7-one] |  |  | 0.201 to 0.5
